# System: Plasmodium falciparum
# Experiment: GSK_TCMDC: Inhibition of Plasmodium falciparum 3D7 in whole erythrocytes, using parasite LDH activity as an index of growth.
# Format: functional, organism-based
# Settings: Plasmodium falciparum, 3D7
row,SMILES,XC50 [nM]
1,N#CC(c1cccc(Cl)c1)c1ccc2c(C(F)(F)F)cc(C(F)(F)F)nc2n1 (stereo unspecified),727
2,Nc1cc(/C=C/c2ccc([N+](=O)[O-])o2)nc2ccccc12,367
3,COc1ccccc1NC(=S)N/N=C/c1ccc(O)cc1O,1020
4,CCCc1ccc(C2CCN(CCCCNC(=O)c3ccc(NC(=O)c4ccc(Cl)cc4)cc3)CC2)cc1,628
5,Oc1ccc(Nc2nc(NCc3ccccc3)c3ccccc3n2)cc1,192
6,SC(=Nc1ccc(Cl)c(Cl)c1)NN=Cc1ccccn1,768
7,N=C(Cc1ccc(Cl)cc1)NCCN1CCCCCC1,742
8,O=C(Nc1ccc([N+](=O)[O-])cc1)Nc1cc(OCC(F)(F)F)cc(OCC(F)(F)F)c1,469
9,O=C(NC1CCC1)C1CCN(C(c2ccccc2)c2cc(F)cc(F)c2)CC1 (stereo unspecified),797
10,COC(=O)C(NC(=O)NC1CCN(c2ccnc(Nc3ccc(F)cc3)n2)C1)c1ccccc1 (stereo unspecified),1050
11,NC(=O)c1cccc(C(=O)Nc2cccc(-c3ccc(-c4nc5ccccc5[nH]4)s3)c2)c1,349
12,COc1cc(Cc2cnc(N)nc2N)cc(OC)c1OCCCCC(=O)O,1140
13,COc1ccc2nccc([C@@H](O)CN3CCC(NC(=O)c4cc5cccnc5[nH]4)CC3)c2c1,894
14,N#Cc1ccc(NC(=O)Nc2ccc(OC(F)(F)F)cc2)cc1,819
15,Cc1nc2nc(N)nc(N)c2c(C)c1Cc1ccc(C#N)cc1,542
16,CC(C)[C@H](NC(=O)c1ccc(O)c(-c2ccc(Cl)c(Cl)c2)c1)C(=O)NCCN1CCCC1,929
17,O=C(/C=C/c1cccc(C(F)(F)F)c1)NCCCCCN1CCN(C(=O)Nc2ccc(Cl)c(Cl)c2)CC1,935
18,CN1CCC(c2c[nH]c3ccc(NC(=O)Nc4ccc(-c5ccncc5)cc4Cl)cc23)CC1,836
19,O=[N+]([O-])c1ccccc1C=NN=c1c2c([nH]c3ccccc13)CCCC2,311
20,COc1ccc2c(=NN=Cc3cccnc3)cc(C)[nH]c2c1,993
21,Cc1cc2nc(N/C(N)=N/C(=O)NC3CCCCC3)nc(C)c2cc1C,754

row,SMILES,XC50 [nM]
1,COc1ccc(C2NCCc3c2[nH]c2ccccc32)cc1CN1CCN(c2ccc(F)cc2)CC1 (stereo unspecified),776
2,CC(Cc1ccc(SC(C)C)cc1)NCC(O)c1cccc(Cl)c1 (stereo unspecified),827
3,Cc1cccc2nc(-c3cccc(-c4ccc(NC(=O)Nc5ccc(Cl)c(Cl)c5)cc4)c3)[nH]c12,566
4,CCN1CCCC(Nc2ccnc3cc4ccccc4cc23)C1 (stereo unspecified),104
5,CC(C)COc1ccc2ccccc2c1CNCCCCCCNCc1c(OCC(C)C)ccc2ccccc12,695
6,O=S(=O)(NC1CCCCN(Cc2ccccc2O)C1)c1ccc(C(F)(F)F)cc1 (stereo unspecified),1300
7,O=C(NC1CC1)c1ccc(N2CCCC(COc3ccccc3F)C2)nc1 (stereo unspecified),897
8,COc1ccc(-c2nnc(Sc3ccc(C#N)c([N+](=O)[O-])c3)n2CCC(C)C)cc1,1110
9,CN(c1ccccc1C(=O)Nc1cc(Cl)ccc1Oc1ccccc1)S(=O)(=O)c1ccccc1,742
10,CCc1sc(N2CCN(C)CC2)nc1C(=O)NCCc1ccc(Cl)c(Cl)c1,1180
11,CNCCNCc1ccc(-c2ccc(-c3nc4cc(F)ccc4[nH]3)s2)cc1,772
12,CCS(=O)(=O)Nc1ccc2c(c1)/C(=C(/Nc1ccc(CN3CCCCC3)cc1)c1ccccc1)C(=O)N2 [HESPERADIN],56.5
13,O=C(NCCCN1CCC(N2CCCCC2)CC1)C1=Cc2cc(Br)ccc2OC1,853
14,CCCCOc1ccc(C(=O)C(CCC(CNC(C)(C)C)C(=O)c2ccc(OCCCC)cc2)CNC(C)(C)C)cc1 (stereo unspecified),1020
15,COc1ccc2c(N/N=C/c3ccccc3[N+](=O)[O-])ccnc2c1,739
16,C=CCC(CC=C)N1C(=O)C(c2ccccc2)(c2ccccc2)N=C1N,659
17,CN1CCC(N(Cc2ccc(-c3ccc(C(F)(F)F)cc3)nc2)C(=O)Cn2c(CCc3cccc(F)c3F)cc(=O)c3ccccc32)CC1,1100
18,CCC1N=C(N)N=C(N)N1OCc1ccc(Cl)c(Cl)c1 (stereo unspecified),3.35
19,Cc1cccc(C)c1CNc1nc(N2CCOCC2)cc2c(C)c(C)[nH]c12,1240
20,C#CCN1CCC2=C(C1)c1c(O)cc(C(C)CCCc3ccc(F)cc3)cc1OC2(C)C (stereo unspecified),731
